Source: patent US20250100993A1, “2-SUBSTITUTED THIAZOLE HSD17B13 INHIBITORS AND USES THEREOF” (Inipharm, Inc., priority 2022, published 2025)

Tests used:
Assay type in all cases: biochemical
[1] = target: HSD17B13 (Homo sapiens (Human), UniProt Q7Z5P4); test: LC/MS estrone detection assay for HSD17B13 activity (estradiol to estrone); details: estradiol substrate, LCMS; read-out: HSD17B13 Inhibition_Estradiol Substrate_LCMS: Ki
Method in brief: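 His-tagged E. coli-expressed enzyme (30 nM) with 4 μM estradiol and 6 mM NAD+ in potassium phosphate pH 7.4, 0.5% DMSO, 2 h at 26.5° C. Estrone formation quantified by LC-MS/MS against D4-estrone standard; activity as % of uninhibited, four-parameter fit, duplicates.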

[2] = target: HSD17B14 (Homo sapiens (Human), UniProt Q9BPX1); test: LC/MS estrone detection assay for HSD17B14 activity (estradiol to estrone); details: selectivity for HSD17B13 over HSD17B14
Experimental: The liquid chromatography/mass spectrometry (LC/MS) estrone detection assay monitors the conversion of estradiol to estrone by HSD17B14. This assay was undertaken in a 96 well plates (Eppendorf deep well), in an 80 μl reaction volume containing: 8 μM of estradiol (E2; Cayman); 4 mM NAD+(Sigma); 120 nM HSD17B14 enzyme (in-house E. coli expressed His-tagged, purified, soluble protein); 1M potassium phosphate buffer pH 7.4, and 1.2% vehicle (DMSO). Reactions were incubated for 2 hours at 37° C. Estradiol (E2) conversion to estrone (E1) was quantitated by LC-MS/MS based analyte detection for E1 using LCMS grade reagents.
Reactions were terminated by the addition of two volumes of acetonitrile (MeCN; LCMS grade) containing deuterated (D4)-E1 used as internal standard (Clear Synth; 500 ng/mL final concentration). Samples were applied to pre-prepared Bond Elut-C18 extraction cartridges (3 mL; Agilent). The cartridges were washed with 1.5 mL water followed by 1.5 mL 5% aqueous methanol, and dried for 5 minutes under vacuum. They were then eluted with 4.5 mL MeCN. The eluates were dried under nitrogen and re-suspended in 200 μL of 60% methanol (LCMS grade) before submission for analysis. Standard curves of E2 and E1 in 4% DMSO were included for quantification.
Analysis of samples was performed on a XBridge BEH C18 column (Waters) using 0.1% Diethyl Amine in MeCN (mobile phase A) and 0.1% Diethyl Amine in milli-Q water (mobile phase B) in a 3 min gradient from 0-25% B. Analytes were detected in negative mode using MRM analysis, with E2 having a RT of 1.89 min and E1 having a RT of 2.07 min. Activity of the enzyme in the absence of NAD+ was used to evaluate specificity of conversion. Enzyme activity in the presence of test samples was expressed as a percentage of the uninhibited enzyme in the presence of 1.2% DMSO vehicle only, and plotted versus inhibitor concentration. Non-linear regression was performed using a four-parameter logistic model and GraphPad Prism software. All assessments were undertaken in duplicate evaluations, which were pooled during the extraction process and subsequently injected as duplicates for LC-MS/MS analysis.

[3] = target: HSD17B2 (Homo sapiens (Human), UniProt P37059); test: HSD17B2 activity via detection of NADH product (NAD-Glo luminescence); details: selectivity for HSD17B13 over HSD17B2
Experimental: The fluorescence based detection assay monitors the conversion of the co-factor NAD^+ to NADH, which occurs coincident with the conversion of estradiol to estrone by HSD17B2. These assays were performed in 384 well plates (Greiner V-shape PP-microplate). The 20 μl reaction volume contained: 0.7 μM estradiol (E2); 6 mM NAD^+ (Sigma); 250 nM HSD17B2 enzyme (Origene; Cat #TP303293); 0.25 M potassium phosphate buffer pH 7.4, 0.75% vehicle (DMSO). Reactions were incubated for 2 hours at 37° C., and the reaction was stopped by freezing the reaction plates at −80° C. Zero time samples were frozen immediately.
The conversion of NAD^+ to NADH was quantitated using NAD-Glo kits (Promega; Cat #G9062) according to the manufacturers' instructions. A volume of 15 μL of enzyme reaction mixture was added to 15 μL of reconstituted Glo reagent, and the plates were incubated for 30 minutes at room temperature. Luminescence was quantitated on a Tecan Spark Reader®. A standard curve of NADH ([…]) in potassium phosphate buffer pH 7.4/1% DMSO was run on each plate.
Activity of the enzyme in the absence of E2 was used to evaluate specificity of conversion. Enzyme activity in the presence of test samples was expressed as a percentage of the uninhibited enzyme in the presence of 1% DMSO vehicle only, and was plotted versus inhibitor concentration. Non-linear regression was performed using a four-parameter logistic model and GraphPad Prism software. All assessments were undertaken in duplicate evaluations.

Sequence of HSD17B13 (Q7Z5P4 20-300): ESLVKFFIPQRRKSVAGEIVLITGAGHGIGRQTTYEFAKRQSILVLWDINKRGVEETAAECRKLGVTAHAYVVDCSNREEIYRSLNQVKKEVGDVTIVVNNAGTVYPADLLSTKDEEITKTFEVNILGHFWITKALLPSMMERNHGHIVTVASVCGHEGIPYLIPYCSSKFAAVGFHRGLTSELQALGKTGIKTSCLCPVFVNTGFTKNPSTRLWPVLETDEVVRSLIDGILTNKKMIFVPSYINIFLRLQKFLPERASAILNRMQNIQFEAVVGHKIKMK
Sequence of HSD17B14 (Q9BPX1 whole entry): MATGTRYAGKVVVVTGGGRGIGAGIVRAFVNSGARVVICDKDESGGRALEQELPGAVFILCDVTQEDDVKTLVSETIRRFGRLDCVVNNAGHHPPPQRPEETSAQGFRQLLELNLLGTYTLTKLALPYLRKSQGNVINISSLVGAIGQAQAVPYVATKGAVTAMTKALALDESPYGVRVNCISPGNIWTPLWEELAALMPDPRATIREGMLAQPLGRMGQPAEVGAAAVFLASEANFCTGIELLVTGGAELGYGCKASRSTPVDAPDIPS
Sequence of HSD17B2 (P37059 whole entry): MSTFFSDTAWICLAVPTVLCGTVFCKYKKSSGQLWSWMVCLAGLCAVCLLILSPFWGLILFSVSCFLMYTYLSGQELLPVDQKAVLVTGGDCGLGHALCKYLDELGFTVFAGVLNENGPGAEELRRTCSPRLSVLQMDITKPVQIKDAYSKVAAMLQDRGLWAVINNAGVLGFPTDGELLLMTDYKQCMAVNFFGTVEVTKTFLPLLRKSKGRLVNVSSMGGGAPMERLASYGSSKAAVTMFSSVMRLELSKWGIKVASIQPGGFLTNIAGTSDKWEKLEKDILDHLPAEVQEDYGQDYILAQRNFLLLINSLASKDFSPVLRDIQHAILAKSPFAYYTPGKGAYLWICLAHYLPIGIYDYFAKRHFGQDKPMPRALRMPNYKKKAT

SMILES	Ki [1] [nM]	HSD17B14 fold selectivity [2] [fold]	HSD17B2 fold selectivity [3] [fold]
O=C(Nc1sc(C2CC2)nc1C(=O)NCc1ccccc1C(F)(F)F)c1cc(Cl)c(O)c(Cl)n1 [Example 59, 2-cyclopropyl-5-(4,6-dichloro-5-hydroxypicolinamido)-N-(2-(trifluoromethyl)benzyl)thiazole-4-carboxamide]	≤ 50	>331	
O=C(Nc1sc(-c2ccccc2F)nc1C(=O)NCc1ccccc1C(F)(F)F)c1cc(Cl)c(O)c(Cl)n1 [Example 60, 5-(4,6-dichloro-5-hydroxypicolinamido)-2-(2-fluorophenyl)-N-(2-(trifluoromethyl)benzyl) thiazole-4-carboxamide]	≤ 50	>980	
O=C(Nc1sc(-c2cccnc2)nc1C(=O)NCc1ccccc1C(F)(F)F)c1cc(Cl)c(O)c(Cl)c1 [Example 61]	≤ 50	>397	64
O=C(Nc1sc(-c2ccccc2)nc1C(=O)NCc1ccccc1C(F)(F)F)c1cc(Cl)c(O)c(Cl)c1 [Example 62]	≤ 50		204
O=C(Nc1sc(-c2ccccc2F)nc1C(=O)NCc1ccccc1C(F)(F)F)c1cc(Cl)c(O)c(Cl)c1 [Example 63]	≤ 50		192
O=C(Nc1sc(-c2ccccc2F)nc1C(=O)NCc1ccccc1C(F)(F)F)c1cc(F)c(O)c(Cl)c1 [Example 64]	≤ 50	>855	115
O=C(Nc1sc(-c2ccccc2Cl)nc1C(=O)NCc1ccccc1C(F)(F)F)c1cc(Cl)c(O)c(Cl)c1 [Example 65]	≤ 50		225
Cn1cc(-c2nc(C(=O)NCc3ccccc3C(F)(F)F)c(NC(=O)c3cc(Cl)c(O)c(Cl)n3)s2)cn1 [Example 66]	50 to 100		36
O=C(Nc1sc(-c2ccccc2Cl)nc1C(=O)NCc1ccccc1C(F)(F)F)c1cc(Cl)c(O)c(Cl)n1 [Example 67]	≤ 50		513
O=C(Nc1sc(-c2cncnc2)nc1C(=O)NCc1ccccc1C(F)(F)F)c1cc(Cl)c(O)c(Cl)n1 [Example 68]	50 to 100		48
O=C(Nc1sc(-c2ccncc2)nc1C(=O)NCc1ccccc1C(F)(F)F)c1cc(Cl)c(O)c(Cl)n1 [Example 70]	≤ 50		107
CS(=O)(=O)c1ccc(-c2nc(C(=O)NCc3ccccc3C(F)(F)F)c(NC(=O)c3cc(Cl)c(O)c(Cl)n3)s2)cc1 [Example 73]	≤ 50	>646	175
O=C(Nc1sc(N2CCS(=O)(=O)CC2)nc1C(=O)NCc1ccccc1C(F)(F)F)c1cc(Cl)c(O)c(Cl)n1 [Example 78, 5-(4,6-dichloro-5-hydroxypicolinamido)-2-(1,1-dioxidothiomorpholino)-N-(2-(trifluoromethyl)benzyl)thiazole-4-carboxamide]	50 to 100	>180	10
O=C(Nc1sc(C2=CCCCC2)nc1C(=O)NCc1ccccc1C(F)(F)F)c1cc(Cl)c(O)c(Cl)n1 [Example 88]	≤ 50		53
O=C(Nc1sc(-c2ccccc2Cl)nc1C(=O)NCc1ccccc1C(F)(F)F)c1cc(F)c(O)c(Cl)c1 [Example 89]	≤ 50	688	
O=C(Nc1sc(-c2cncc(F)c2)nc1C(=O)NCc1ccccc1C(F)(F)F)c1cc(F)c(O)c(Cl)c1 [Example 90]	≤ 50	>797	107
CS(=O)(=O)c1ccccc1-c1nc(C(=O)NCc2ccccc2C(F)(F)F)c(NC(=O)c2cc(Cl)c(O)c(Cl)c2)s1 [Example 91]	50 to 100	76	24
CS(=O)(=O)c1ccccc1-c1nc(C(=O)NCc2ccccc2C(F)(F)F)c(NC(=O)c2cc(Cl)c(O)c(Cl)n2)s1 [Example 92]	50 to 100	>215	44
CN(C)Cc1ccc(F)c(-c2nc(C(=O)NCc3ccccc3C(F)(F)F)c(NC(=O)c3cc(F)c(O)c(Cl)c3)s2)c1 [Example 94]	≤ 50	>1250	1270
N#Cc1cccc(-c2nc(C(=O)NCc3ccccc3C(F)(F)F)c(NC(=O)c3cc(Cl)c(O)c(Cl)c3)s2)c1 [Example 95]	≤ 50	>1640	2150
N#Cc1cccc(-c2nc(C(=O)NCc3ccccc3C(F)(F)F)c(NC(=O)c3cc(F)c(O)c(Cl)c3)s2)c1 [Example 96]	≤ 50	>2000	985
CS(=O)(=O)c1cccc(-c2nc(C(=O)NCc3ccccc3C(F)(F)F)c(NC(=O)c3cc(Cl)c(O)c(Cl)c3)s2)c1 [Example 97]	≤ 50	772	
CS(=O)(=O)c1cccc(-c2nc(C(=O)NCc3ccccc3C(F)(F)F)c(NC(=O)c3cc(Cl)c(O)c(Cl)n3)s2)c1 [Example 98]	≤ 50	928	
CC(NC(=O)c1nc(-c2ccccc2)sc1NC(=O)c1cc(Cl)c(O)c(Cl)n1)c1ccccc1C(F)(F)F (stereo not drawn) [Example 99]	≤ 50	253	
O=C(Nc1sc(-c2cnccn2)nc1C(=O)NCc1ccccc1C(F)(F)F)c1cc(Cl)c(O)c(Cl)c1 [Example 100]	≤ 50	>843	
O=C(Nc1sc(-c2cnccn2)nc1C(=O)NCc1ccccc1C(F)(F)F)c1cc(Cl)c(O)c(Cl)n1 [Example 101]	≤ 50	>142	
CC(NC(=O)c1nc(-c2cccnc2)sc1NC(=O)c1cc(Cl)c(O)c(Cl)c1)c1ccccc1C(F)(F)F (stereo not drawn) [Example 102]	≤ 50	>1230	
CC(NC(=O)c1nc(-c2cccnc2)sc1NC(=O)c1cc(Cl)c(O)c(Cl)n1)c1ccccc1C(F)(F)F (stereo not drawn) [Example 103]	≤ 50	>1850	
CS(=O)(=O)c1ccc(-c2nc(C(=O)NCc3ccccc3C(F)(F)F)c(NC(=O)c3cc(Cl)c(O)c(Cl)c3)s2)cc1 [Example 104]	≤ 50	357	444
